This assay relates to PANC-1 (human pancreatic cancer-derived cell line). Nature of the assay: MTS assay on Panc-1 (human pancreas carcinoma cell line). The assay is classed as cell-based. To be noted: 144 h; for pIC50: PANC-1, MTS method, cell survival 6 days after exposure, 4-parameter logistic fit; for inhibition at 0.3125 µM: read-out: Growth inhibition (%) 0.3125 μM; for inhibition at 1 µM: read-out: Growth inhibition (%) 1 μM; for inhibition at 10 µM: read-out: Growth inhibition (%) 10 μM; for inhibition at 0.15625 µM: read-out: Growth inhibition (%) 0.15625 μM. The gist of the method:
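Viability measured by MTS 6 days after treating human pancreatic carcinoma PANC-1 cells with compound serially diluted 2-fold in DMSO; absorbance 492–630 nm normalized to solvent control. Triplicate measurements averaged and fitted to a 4-parameter logistic curve.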

pIC50: −log10 of the molar value.

This passage reports inhibition and IC50 results from patent US20230265104A1, “NOVEL HETEROCYCLIC COMPOUNDS” (PRISM BIOLAB CO., LTD., priority 2020, published 2023).

As a reminder, the inhibition is the relative decrease from the control value, in per cent. The pIC50 is the IC50 on a negative log10 scale, so that one unit is a factor of ten.

`CC(C)C[C@@H]1C(=O)N2[C@H](CN(C3CCN(C)CC3)C(=O)[C@@H]2Cc2ccccc2)N1C(=O)/C=C/c1nc2ccccc2s1` [ID-86, (2R,5S,8aR)-1-((E)-3-(benzo[d]thiazol-2-yl)acryloyl)-5-benzyl-2-isobutyl-7-(1-methylpiperidin-4-yl)tetrahydroimidazo[1,2-a]pyrazine-3,6(2H,5H)-dione]: for the setting “PANC-1, MTS, 6 days, 1.25 μM, read-out: Growth inhibition (%) 1.25 μM”, the inhibition at 1.25 µM is 50%.

`CC(C)(C)C[C@H]1C(=O)N([C@@H]2CCN(CCCCO)C2)C[C@@H]2N(C(=O)/C=C/c3cnc4ccccc4n3)O[C@H](CC3CCCCC3)C(=O)N21` [ID-90, (3R, 6S, 9aS)-3-(cyclohexylmethyl)-8-((R)-1-(4-hydroxybutyl)pyrrolidin-3-yl)-6-neopentyl-1-((E)-3-(quinoxalin-2-yl)acryloyl)tetrahydropyrazino[2,1-c][1,2,4]oxadiazine-4,7(3H,6H)-dione] gave a negative logarithm of the IC50 (pIC50) of 6.68. For the setting “PANC-1, MTS, 6 days”, the inhibition at 0.3125 µM came to 66% and the inhibition at 1 µM amounted to 99%.

In turn, `CC(C)C[C@H]1ON(C(=O)/C=C/c2nc3cccnc3s2)[C@H]2CN(CCC(N)=O)C(=O)[C@H](CC(C)C)N2C1=O` [ID-32, 3-((3R,6S,9aS)-3,6-diisobutyl-4,7-dioxo-1-((E)-3-(thiazolo[5,4-b]pyridin-2-yl)acryloyl)hexahydropyrazino[2,1-c][1,2,4]oxadiazin-8(1H)-yl)propanamide] had a pIC50 of 6.21. Also, for the setting “PANC-1, MTS, 6 days”, the inhibition at 10 µM worked out at 101%.

Turning to `CC(C)C[C@H]1ON(C(=O)/C=C/c2nc3ccccc3s2)[C@H]2CN([C@H]3CCN(CCCCO)C3)C(=O)[C@H](CC(C)(C)C)N2C1=O` [ID-5, (3R,6S,9aS)-1-((E)-3-(benzo[d]thiazol-2-yl)acryloyl)-8-((S)-1-(4-hydroxybutyl)pyrrolidin-3-yl)-3-isobutyl-6-neopentyltetrahydropyrazino[2,1-c][1,2,4]oxadiazine-4,7(3H,6H)-dione], the pIC50 was 6.74.

Compound `CC(C)C[C@H]1C(=O)N(C2CCN(C)CC2)C[C@@H]2N(C(=O)/C=C/c3nc4ccccc4s3)c3ccccc3C(=O)N21` [ID-58, (4S,11aS)-11-((E)-3-(benzo[d]thiazol-2-yl)acryloyl)-4-isobutyl-2-(1-methylpiperidin-4-yl)-1,2,11,11a-tetrahydro-6H-pyrazino[2,1-b]quinazoline-3,6(4H)-dione] gave a pIC50 of 6.25. For the same compound, the inhibition at 1 µM (PANC-1, MTS, 6 days) amounted to 78.4%.

As to `CC(C)C[C@H]1ON(C(=O)/C=C/c2cccc(=O)[nH]2)[C@H]2CN(C3CCN(C)CC3)C(=O)[C@H](CC(C)C)N2C1=O` [ID-51, (3R,6S,9aS)-3,6-diisobutyl-8-(1-methylpiperidin-4-yl)-1-((E)-3-(6-oxo-1,6-dihydropyridin-2-yl)acryloyl)tetrahydropyrazino[2,1-c][1,2,4]oxadiazine-4,7(3H,6H)-dione], the inhibition at 10 µM (PANC-1, MTS, 6 days) was 47.5%.

Turning to `CC(C)C[C@H]1ON(C(=O)/C=C/c2ncco2)[C@H]2CN(C3CCN(C)CC3)C(=O)[C@H](CC(C)C)N2C1=O` [ID-53, (3R,6S,9aS)-3,6-diisobutyl-8-(1-methylpiperidin-4-yl)-1-((E)-3-(oxazol-2-yl)acryloyl)tetrahydropyrazino[2,1-c] [1,2,4]oxadiazine-4,7(3H,6H)-dione], the pIC50 was 5.92. The inhibition at 10 µM (PANC-1, MTS, 6 days) amounted to 100%.

On to `C#Cc1sc(/C=C/C(=O)N2O[C@H](CC(C)C)C(=O)N3[C@@H]2CN(C2CCN(C(C)C)CC2)C(=O)[C@@H]3CC(C)(C)C)nc1C#CCCCO` [ID-100, (3R,6S,9aS)-1-((E)-3-(5-ethynyl-4-(5-hydroxypent-1-yn-1-yl)thiazol-2-yl)acryloyl)-3-isobutyl-8-(1-isopropylpiperidin-4-yl)-6-neopentyltetrahydropyrazino[2,1-c][1,2,4]oxadiazine-4,7(3H,6H)-dione], for which the inhibition at 0.15625 µM (PANC-1, MTS, 6 days) turned out to be 99.8%.

The compound `CC(=O)N1CCC(N2C[C@@H]3N(C(=O)/C=C/c4nc5ccccc5s4)O[C@H](CC(C)C)C(=O)N3[C@@H](CC(C)C)C2=O)CC1` [ID-45, (3R,6S,9aS)-8-(1-acetylpiperidin-4-yl)-1-((E)-3-(benzo[d]thiazol-2-yl)acryloyl)-3,6-diisobutyltetrahydropyrazino[2,1-c][1,2,4]oxadiazine-4,7(3H,6H)-dione] had a pIC50 of 6.09. In addition, the inhibition at 10 µM (PANC-1, MTS, 6 days) amounted to 101%.

In the case of `CC(C)(C)C[C@H]1C(=O)N([C@@H]2CCN(CCCCO)C2)C[C@@H]2N(C(=O)/C=C/c3nc4ccccc4s3)O[C@H](C[C@H]3C[C@@H]3CCc3ccccc3)C(=O)N21` [ID-104, (3R,6S,9aS)-1-((E)-3-(benzo[d]thiazol-2-yl)acryloyl)-8-((R)-1-(4-hydroxybutyl)pyrrolidin-3-yl)-6-neopentyl-3-(((1R,2S)-2-phenethylcyclopropyl)methyl)tetrahydropyrazino[2,1-c][1,2,4]oxadiazine-4,7(3H,6H)-dione], the inhibition at 0.3125 µM (PANC-1, MTS, 6 days) was determined as 30.1%.

In the case of `CC(C)C[C@H]1ON(C(=O)/C=C/c2nc3ccccc3s2)[C@H]2CN(C3CCOCC3)C(=O)[C@H](CC(C)C)N2C1=O` [ID-64, (3R,6S,9aS)-1-((E)-3-(benzo[d]thiazol-2-yl)acryloyl)-3,6-diisobutyl-8-(tetrahydro-2H-pyran-4-yl)tetrahydropyrazino[2,1-c][1,2,4]oxadiazine-4,7(3H,6H)-dione], the pIC50 was 6.06.

With `CC(C)C[C@H]1ON(C(=O)/C=C/c2nc(C#CC3(N)CC3)cs2)[C@H]2CN([C@H]3CCN(CCCCO)C3)C(=O)[C@H](CC(C)(C)C)N2C1=O` [ID-87, (3R, 6S, 9aS)-1-((E)-3-(4-((1-aminocyclopropyl)ethynyl)thiazol-2-yl)acryloyl)-8-((S)-1-(4-hydroxybutyl)pyrrolidin-3-yl)-3-isobutyl-6-neopentyltetrahydropyrazino[2,1-c][1,2,4]oxadiazine-4,7(3H,6H)-dione], the inhibition at 0.3125 µM (PANC-1, MTS, 6 days) came to 54.5%.

With `CC(C)C[C@H]1ON(C(=O)/C=C/c2ccccn2)[C@H]2CN(C3CCN(C4CCOCC4)CC3)C(=O)[C@H](CC(C)C)N2C1=O` [ID-62, (3R,6S,9aS)-3,6-diisobutyl-1-((E)-3-(pyridin-2-yl)acryloyl)-8-(1-(tetrahydro-2H-pyran-4-yl)piperidin-4-yl)tetrahydropyrazino[2,1-c][1,2,4]oxadiazine-4,7(3H,6H)-dione], the pIC50 is 5.47.

The compound `CC(C)C[C@H]1ON(C(=O)/C=C/c2ccccn2)[C@H]2CN(C3CCN(C)CC3)C(=O)[C@H](Cc3ccccc3)N2C1=O` [ID-66, (3R,6S,9aS)-6-benzyl-3-isobutyl-8-(1-methylpiperidin-4-yl)-1-((E)-3-(pyridin-2-yl)acryloyl)tetrahydropyrazino[2,1-c][1,2,4]oxadiazine-4,7(3H,6H)-dione] gave a pIC50 of 5.28. Also, the inhibition at 10 µM (PANC-1, MTS, 6 days) stood at 96.7%.

As to `CC(C)C[C@H]1ON(C(=O)/C=C/c2nc3ccccc3s2)[C@H]2CN(C3CCN(C)CC3)C(=O)[C@H](CCS(C)(=O)=O)N2C1=O` [ID-74, (3R,6S,9aS)-1-((E)-3-(benzo[d]thiazol-2-yl)acryloyl)-3-isobutyl-8-(1-methylpiperidin-4-yl)-6-(2-(methylsulfonyl)ethyl)tetrahydropyrazino[2,1-c][1,2,4]oxadiazine-4,7(3H,6H)-dione], the inhibition at 0.3125 µM (PANC-1, MTS, 6 days) was 38.7%.

As to `CC(C)C[C@H]1ON(C(=O)/C=C/c2nc3cc(OCCCO)ccc3s2)[C@H]2CN(C3CCN(C(C)C)CC3)C(=O)[C@H](CC(C)(C)C)N2C1=O` [ID-101, (3R,6S,9aS)-1-((E)-3-(5-(3-hydroxypropoxy)benzo[d]thiazol-2-yl)acryloyl)-3-isobutyl-8-(1-isopropylpiperidin-4-yl)-6-neopentyltetrahydropyrazino[2,1-c][1,2,4]oxadiazine-4,7(3H,6H)-dione], the inhibition at 0.15625 µM (PANC-1, MTS, 6 days) worked out at 65.6%.

On to `CC(C)C[C@H]1ON(C(=O)/C=C/c2ccccn2)[C@H]2CN(C3CCC(N(C)C)CC3)C(=O)[C@H](CC(C)C)N2C1=O` (stereo partly drawn) [ID-69, (3R,6S,9aS)-8-(4-(dimethylamino)cyclohexyl)-3,6-diisobutyl-1-((E)-3-(pyridin-2-yl)acryloyl)tetrahydropyrazino[2,1-c][1,2,4]oxadiazine-4,7(3H,6H)-dione], for which the pIC50 is 5.55.

Turning to `CC(C)C[C@H]1ON(C(=O)/C=C/c2ccccn2)[C@H]2CN(C3CCN(Cc4ncccn4)CC3)C(=O)[C@H](CC(C)C)N2C1=O` [ID-36, (3R,6S,9aS)-3,6-diisobutyl-1-((E)-3-(pyridin-2-yl)acryloyl)-8-(1-(pyrimidin-2-ylmethyl)piperidin-4-yl)tetrahydropyrazino[2,1-c][1,2,4]oxadiazine-4,7(3H,6H)-dione], under “PANC-1, MTS, 6 days”, the inhibition at 10 µM is 76%.

Compound `CCOC(=O)c1cnc(/C=C/C(=O)N2O[C@H](CC(C)C)C(=O)N3[C@@H]2CN(CCC(N)=O)C(=O)[C@@H]3CC(C)C)s1` [ID-33, ethyl 2-((E)-3-((3R,6S,9aS)-8-(3-amino-3-oxopropyl)-3,6-diisobutyl-4,7-dioxohexahydropyrazino[2,1-c][1,2,4]oxadiazin-1(6H)-yl)-3-oxoprop-1-en-1-yl)thiazole-5-carboxylate] gave a pIC50 of 5.96. Besides, for the setting “PANC-1, MTS, 6 days”, the inhibition at 10 µM is 99.9%.

`CC(C)C[C@H]1ON(C(=O)/C=C/c2ccccn2)[C@H]2CN(C3CCN(C4CCN(C(C)C)CC4)CC3)C(=O)[C@H](CC(C)C)N2C1=O` [ID-40, (3R,6S,9aS)-3,6-diisobutyl-8-(1′-isopropyl-[1,4′-bipiperidin]-4-yl)-1-((E)-3-(pyridin-2-yl)acryloyl)tetrahydropyrazino[2,1-c][1,2,4]oxadiazine-4,7(3H,6H)-dione] showed a pIC50 of 5.40. Further, the inhibition at 10 µM (PANC-1, MTS, 6 days) was 102%.
